# In patent publication EP0973746B1, “SUBSTITUTED 3-CYANO QUINOLINES” (Wyeth Holdings Corporation, priority 1997, dated 1998):
# Read-outs that look alike come from different tables or passages of the source.
# Key:
# SKBR3 = assay: Inhibition of cancer cell growth as measured by cell number, SKBR3; format: cell-based, human; conditions: Homo sapiens, Table 7;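 note: SK-BR-3 cells were selected as a line overexpressing HER2/neu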
# Excerpt: (§1) The cell lines were chosen since they overexpressed epidermal growth factor receptor (EGFR) (i.e. A431) or HER2/neu (SKBR3), or had little to no expression of the these receptors (SW620, LOX, MCF7).
# LOX = assay: Inhibition of cancer cell growth as measured by cell number, LOX; format: cell-based, human; conditions: Homo sapiens, LOX, 48 h, Table 6;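 note: LOX cells served as a line with low or absent EGFR and HER2/neu expression, in contrast to receptor-overexpressing lines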
# Excerpt: as §1
# COLO205 = assay: Inhibition of cancer cell growth as measured by cell number, COLO205; format: cell-based; conditions: Homo sapiens, read-out: IC50 COLO205
# B7474 = assay: Inhibition of cancer cell growth as measured by cell number, B7474; format: cell-based; conditions: Homo sapiens, read-out: IC50 B7474
# SW620 = assay: Inhibition of cancer cell growth as measured by cell number, SW620; format: cell-based, human; conditions: Homo sapiens, SW-620, 48 h, Table 4;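 note: SW620 was included as a cell line with little or no EGFR or HER2/neu expression, in contrast to receptor-overexpressing lines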
# Excerpt: as §1
# HCT15 = assay: Inhibition of cancer cell growth as measured by cell number, HCT15; format: cell-based; conditions: Homo sapiens, read-out: IC50 HCT15
# HTB161 = assay: Inhibition of cancer cell growth as measured by cell number, HTB161; format: cell-based; conditions: Homo sapiens, read-out: IC50 HTB161
# CCRF-CFM = assay: Inhibition of cancer cell growth as measured by cell number, CCRF-CFM; format: cell-based; conditions: Homo sapiens, read-out: IC50 CCRF-CFM
# T47D = assay: Inhibition of cancer cell growth as measured by cell number, T47D; format: cell-based; conditions: Homo sapiens
# CX1 = assay: Inhibition of cancer cell growth as measured by cell number, CX1; format: cell-based; conditions: Homo sapiens, read-out: IC50 CX1
# LNCAP = assay: Inhibition of cancer cell growth as measured by cell number, LNCAP; format: cell-based; conditions: Homo sapiens
# HL60 = assay: Inhibition of cancer cell growth as measured by cell number, HL60; format: cell-based; conditions: Homo sapiens, read-out: IC50 HL60
# A27805 = assay: Inhibition of cancer cell growth as measured by cell number, A27805; format: cell-based; conditions: Homo sapiens, read-out: IC50 A27805
# LS174T = assay: Inhibition of cancer cell growth as measured by cell number, LS174T; format: cell-based; conditions: Homo sapiens
# A431 [1] = assay: Inhibition of cancer cell growth as measured by cell number, A431; format: cell-based, human; conditions: Homo sapiens, A-431, 48 h, Table 6;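 note: human A431 line, picked because it overexpresses epidermal growth factor receptor (EGFR)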
# Excerpt: as §1
# DU145 = assay: Inhibition of cancer cell growth as measured by cell number, DU145; format: cell-based; conditions: Homo sapiens, read-out: IC50 DU145
# MCF7 = assay: Inhibition of cancer cell growth as measured by cell number, MCF7; format: cell-based, human; conditions: Homo sapiens, MCF7, 48 h, Table 5;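 note: MCF7 was included as a line with little or no EGFR or HER2/neu expression, in contrast to the receptor-overexpressing lines of the panel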
# Excerpt: as §1
# LX1 = assay: Inhibition of cancer cell growth as measured by cell number, LX1; format: cell-based; conditions: Homo sapiens, read-out: IC50 LX1
# PC3 = assay: Inhibition of cancer cell growth as measured by cell number, PC3; format: cell-based; conditions: Homo sapiens, read-out: IC50 PC3
# MIP = assay: Inhibition of cancer cell growth as measured by cell number, MIP; format: cell-based; conditions: Homo sapiens; cell number, Sulforhodamine B, 48 hours exposure; Table 4; read-out: IC50 MIP
# A2780DDP = assay: Inhibition of cancer cell growth as measured by cell number, A2780DDP; format: cell-based; conditions: Homo sapiens, read-out: IC50 A2780DDP
# [2] = biological target: recombinant human MEK 1 (MAPKK) and recombinant human ERK2 (MAPK); assay: Mitogen Activated Protein Kinase (MAPK) assay, two component coupled MEK 1 / ERK2; format: biochemical; conditions: separate entries for the same compound = evaluated more than one time;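 note: MEK 1-activated ERK2 phosphorylates MBP or Myc peptide with 33P-ATP, filter capture and scintillation counting, inhibitor preincubated with ERK2 30 min at 0 °C, inhibition relative to uninhibited control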
# A549 = assay: Inhibition of cancer cell growth as measured by cell number, A549; format: cell-based; conditions: Homo sapiens, read-out: IC50 A549
# CACO2 = assay: Inhibition of cancer cell growth as measured by cell number, CACO2; format: cell-based; conditions: Homo sapiens, read-out: IC50 CACO2
# [3] = biological target: epidermal growth factor receptor kinase (Homo sapiens, UniProt P00533); assay: biochemical
# SW948 = assay: Inhibition of cancer cell growth as measured by cell number, SW948; format: cell-based; conditions: Homo sapiens, read-out: IC50 SW948
# CCL228 = assay: Inhibition of cancer cell growth as measured by cell number, CCL228; format: cell-based; conditions: Homo sapiens, read-out: IC50 CCL228
# NEC = assay: Inhibition of cancer cell growth as measured by cell number, NEC; format: cell-based; conditions: Homo sapiens, read-out: IC50 NEC
# A431 [4] = assay: Inhibition of cell growth by incorporation of [3H]-thymidine, A431; format: cell-based, human; conditions: Homo sapiens
# [5] = biological target: T1, Kinase insert Domain containing Receptor (KDR: the catalytic domain of the VEGF receptor) (Homo sapiens, UniProt P35968); assay: Inhibition of Kinase insert Domain containing Receptor (KDR); format: biochemical; conditions: pH 7.2; radioactive format; read-out: KDR IC50 (converted);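 note: KDR phosphorylating a Glu:Tyr 4:1 copolymer with P32- or P33-labelled ATP, Mg++ and vanadate, read as acid-insoluble radiolabel, compared with compound-free reaction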
# T1 construct: KDR: the catalytic domain of the VEGF receptor
# [6] = cell number, Sulforhodamine B, 48 hours exposure, Table 6
# [7] = cell number, Sulforhodamine B, 48 hours exposure, Table 4
# [8] = read-out: IC50 LOX, cell number, Sulforhodamine B, 48 hours exposure
# [9] = read-out: IC50 SW620, cell number, Sulforhodamine B, 48 hours exposure
# [10] = read-out: IC50 A431, cell number, Sulforhodamine B, 48 hours exposure
# [11] = SK-BR-3, 48 h, read-out: IC50 SKBR3, cell number, Sulforhodamine B, 48 hours exposure
# [12] = read-out: IC50 MCF7, cell number, Sulforhodamine B, 48 hours exposure
# Sequence of epidermal growth factor receptor kinase (P00533 25-1210): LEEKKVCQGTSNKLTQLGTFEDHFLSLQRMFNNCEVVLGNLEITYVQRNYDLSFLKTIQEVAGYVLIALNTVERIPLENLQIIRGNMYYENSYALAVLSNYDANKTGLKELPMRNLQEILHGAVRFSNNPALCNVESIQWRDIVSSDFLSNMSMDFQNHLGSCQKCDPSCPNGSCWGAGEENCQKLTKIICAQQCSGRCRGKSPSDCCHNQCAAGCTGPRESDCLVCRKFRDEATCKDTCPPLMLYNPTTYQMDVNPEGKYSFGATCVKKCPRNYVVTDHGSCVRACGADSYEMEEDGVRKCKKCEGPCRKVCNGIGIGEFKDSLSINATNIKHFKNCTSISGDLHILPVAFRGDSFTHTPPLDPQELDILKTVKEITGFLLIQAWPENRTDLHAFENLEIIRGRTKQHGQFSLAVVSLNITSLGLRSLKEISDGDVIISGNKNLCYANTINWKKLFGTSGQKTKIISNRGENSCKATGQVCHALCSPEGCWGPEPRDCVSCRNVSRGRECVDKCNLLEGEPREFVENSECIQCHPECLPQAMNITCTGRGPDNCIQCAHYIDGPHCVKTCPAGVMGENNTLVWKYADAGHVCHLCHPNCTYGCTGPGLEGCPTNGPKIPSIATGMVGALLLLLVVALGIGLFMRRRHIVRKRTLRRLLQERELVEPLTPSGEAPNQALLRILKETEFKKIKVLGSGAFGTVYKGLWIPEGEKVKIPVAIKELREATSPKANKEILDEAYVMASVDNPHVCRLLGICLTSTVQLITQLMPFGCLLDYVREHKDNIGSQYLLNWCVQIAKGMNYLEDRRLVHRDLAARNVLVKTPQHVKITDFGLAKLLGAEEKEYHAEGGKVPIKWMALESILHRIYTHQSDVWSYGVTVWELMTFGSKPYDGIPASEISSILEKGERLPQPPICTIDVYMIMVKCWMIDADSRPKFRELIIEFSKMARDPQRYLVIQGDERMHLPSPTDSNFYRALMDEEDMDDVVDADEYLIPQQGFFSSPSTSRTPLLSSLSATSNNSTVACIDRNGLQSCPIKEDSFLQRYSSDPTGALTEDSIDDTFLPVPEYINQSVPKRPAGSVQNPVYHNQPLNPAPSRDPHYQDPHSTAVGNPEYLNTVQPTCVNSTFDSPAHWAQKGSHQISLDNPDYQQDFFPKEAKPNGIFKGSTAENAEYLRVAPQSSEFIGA
# T1 sequence (P35968 834-1162 limits assumed): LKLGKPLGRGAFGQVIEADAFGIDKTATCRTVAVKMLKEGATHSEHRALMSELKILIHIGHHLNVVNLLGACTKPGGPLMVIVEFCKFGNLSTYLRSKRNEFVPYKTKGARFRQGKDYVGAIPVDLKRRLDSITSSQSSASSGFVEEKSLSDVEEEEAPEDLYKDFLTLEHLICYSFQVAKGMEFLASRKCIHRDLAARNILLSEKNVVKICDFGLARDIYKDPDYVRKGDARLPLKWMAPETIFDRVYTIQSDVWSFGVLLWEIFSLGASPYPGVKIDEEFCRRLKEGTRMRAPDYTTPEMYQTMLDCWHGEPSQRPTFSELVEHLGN
smiles,measurement,setting,value
"COc1cc2ncc(C#N)c(Sc3ccc(Br)cc3)c2cc1OC [Example 50, 4-[(4-Bromophenyl)sulfanyl]-6,7-dimethoxy-3-quinolinecarbonitrile]",IC50,"SKBR3; SK-BR-3, cell number, Sulforhodamine B, 48 hours exposure, read-out: IC50 SKBR3",6.83 µg/mL
same,IC50,"LOX; cell number, Sulforhodamine B, 48 hours exposure, read-out: IC50 LOX",4.7 µg/mL
same,IC50,"COLO205; COLO 205, cell number, Sulforhodamine B, 48 hours exposure, Table 4",28.5 µg/mL
same,IC50,B7474; [6],7.17 µg/mL
same,IC50,"SW620; cell number, Sulforhodamine B, 48 hours exposure, read-out: IC50 SW620",32.9 µg/mL
same,IC50,"HCT15; HCT-15, cell number, Sulforhodamine B, 48 hours exposure, Table 5",8.54 µg/mL
same,IC50,HTB161; [7],4.46 µg/mL
same,IC50,"CCRF-CFM; cell number, Sulforhodamine B, 48 hours exposure, Table 7",4.6 µg/mL
same,IC50,"T47D; cell number, Sulforhodamine B, 48 hours exposure, Table 6, read-out: IC50 T47D",5.42 µg/mL
same,IC50,"CX1; CX-1, cell number, Sulforhodamine B, 48 hours exposure, Table 4",8.72 µg/mL
same,IC50,"LNCAP; cell number, Sulforhodamine B, 48 hours exposure, Table 7, read-out: IC50 LNCAP",5.34 µg/mL
same,IC50,"HL60; HL-60, cell number, Sulforhodamine B, 48 hours exposure, Table 7",4.72 µg/mL
same,IC50,A27805; [7],4.68 µg/mL
same,IC50,"LS174T; cell number, Sulforhodamine B, 48 hours exposure, Table 5, read-out: IC50 LS174T",7.68 µg/mL
same,IC50,"A431 [1]; cell number, Sulforhodamine B, 48 hours exposure, read-out: IC50 A431",7.35 µg/mL
same,IC50,"DU145; DU-145, cell number, Sulforhodamine B, 48 hours exposure, Table 7",5.6 µg/mL
same,IC50,"MCF7; cell number, Sulforhodamine B, 48 hours exposure, read-out: IC50 MCF7",7.14 µg/mL
same,IC50,"LX1; LX-1, cell number, Sulforhodamine B, 48 hours exposure, Table 6",7.21 µg/mL
same,IC50,"PC3; PC-3, cell number, Sulforhodamine B, 48 hours exposure, Table 7",8.53 µg/mL
same,IC50,MIP,7.35 µg/mL
same,IC50,A2780DDP; [7],6.42 µg/mL
same,IC50,[2],> 100 µM
same,IC50,"A549; A549, cell number, Sulforhodamine B, 48 hours exposure, Table 6",6.82 µg/mL
same,IC50,"CACO2; Caco-2, cell number, Sulforhodamine B, 48 hours exposure, Table 5",4.89 µg/mL
same,IC50,[3],5 µM
same,IC50,"SW948; SW948, cell number, Sulforhodamine B, 48 hours exposure, Table 5",17.9 µg/mL
same,IC50,"CCL228; cell number, Sulforhodamine B, 48 hours exposure, Table 5",6.79 µg/mL
same,IC50,NEC; [6],6.89 µg/mL
"COc1cc2ncc(C#N)c(Nc3ccc(F)cc3)c2cc1OC [Example 46, 4-((4-Fluorophenyl)amino]-6,7-dimethoxy-3-quinolinecarbonitrile]",IC50,LOX; [8],5.35 µg/mL
same,IC50,B7474; 48 h,32.9 µg/mL
same,IC50,SW620; [9],> 100 µg/mL
same,IC50,"HCT15; HCT-15, 48 h",5.6 µg/mL
same,IC50,HTB161; 48 h,9.59 µg/mL
same,IC50,CCRF-CFM; 48 h,61.7 µg/mL
same,IC50,"T47D; 48 h, read-out: IC50 T47D",> 100 µg/mL
same,IC50,"CX1; CX-1, 48 h",9.7 µg/mL
same,IC50,"A431 [4]; A-431, read-out: IC50 A431",1 µM
same,IC50,"HL60; HL-60, 48 h",6.02 µg/mL
same,IC50,A27805; 48 h,7.41 µg/mL
same,IC50,"LS174T; 48 h, read-out: IC50 LS174T",7.13 µg/mL
same,IC50,A431 [1]; [10],8.01 µg/mL
same,IC50,"DU145; DU-145, 48 h",3.63 µg/mL
same,IC50,"LX1; LX-1, 48 h",34 µg/mL
same,IC50,"PC3; PC-3, 48 h",> 100 µg/mL
same,IC50,MIP,5.6 µg/mL
same,IC50,A2780DDP; 48 h,5.86 µg/mL
same,IC50,"A549; A549, 48 h",4.85 µg/mL
same,IC50,"CACO2; Caco-2, 48 h",6.03 µg/mL
same,IC50,[3],8.83 µM
same,IC50,"SW948; SW948, 48 h",> 100 µg/mL
same,IC50,CCL228; 48 h,54 µg/mL
"N#Cc1cnc2ccc([N+](=O)[O-])cc2c1Nc1cccc(Br)c1 [Example 13, 4-[(3-Bromophenyl)amino]-6-nitro-3-quinolinecarbonitrile]",IC50,SKBR3; [11],100 µg/mL
same,IC50,LOX; [8],> 100 µg/mL
same,IC50,"COLO205; COLO 205, 48 h",45.8 µg/mL
same,IC50,B7474; 48 h,98.8 µg/mL
same,IC50,SW620; [9],100 µg/mL
same,IC50,"HCT15; HCT-15, 48 h",100 µg/mL
same,IC50,HTB161; 48 h,97.1 µg/mL
same,IC50,CCRF-CFM; 48 h,> 100 µg/mL
same,IC50,"T47D; 48 h, read-out: IC50 T47D",47.7 µg/mL
same,IC50,"CX1; CX-1, 48 h",> 100 µg/mL
same,IC50,"LNCAP; 48 h, read-out: IC50 LNCAP",> 100 µg/mL
same,IC50,"A431 [4]; A-431, read-out: IC50 A431",50 µM
same,IC50,"HL60; HL-60, 48 h",70.2 µg/mL
same,IC50,A27805; 48 h,9.94 µg/mL
same,IC50,"LS174T; 48 h, read-out: IC50 LS174T",94 µg/mL
same,IC50,A431 [1]; [10],91 µg/mL
same,IC50,"DU145; DU-145, 48 h",65.8 µg/mL
same,IC50,MCF7; [12],65 µg/mL
same,IC50,"LX1; LX-1, 48 h",> 100 µg/mL
same,IC50,"PC3; PC-3, 48 h",> 100 µg/mL
same,IC50,MIP,7.8 µg/mL
same,IC50,A2780DDP; 48 h,57 µg/mL
same,IC50,[2],> 100 µM
same,IC50,"A549; A549, 48 h",> 100 µg/mL
same,IC50,"CACO2; Caco-2, 48 h",31.5 µg/mL
same,IC50,"SW948; SW948, 48 h",> 100 µg/mL
same,IC50,CCL228; 48 h,> 100 µg/mL
same,IC50,NEC; 48 h,> 100 µg/mL
"C=CC(=O)Nc1cc2c(Nc3cccc(Br)c3)c(C#N)cnc2cc1OC [Example 9, N-[4-[(3-Bromophenyl)amino]-3-cyano-7-methoxy-6-quinolinyl]-2-propenamide]",IC50,SKBR3; [11],0.862 µg/mL
same,IC50,LOX; [8],0.438 µg/mL
same,IC50,"COLO205; COLO 205, 48 h",2.56 µg/mL
same,IC50,B7474; 48 h,0.443 µg/mL
same,IC50,SW620; [9],1.94 µg/mL
same,IC50,"HCT15; HCT-15, 48 h",0.984 µg/mL
same,IC50,HTB161; 48 h,0.341 µg/mL
same,IC50,CCRF-CFM; 48 h,0.551 µg/mL
same,IC50,"T47D; 48 h, read-out: IC50 T47D",0.838 µg/mL
same,IC50,"CX1; CX-1, 48 h",0.91 µg/mL
same,IC50,"LNCAP; 48 h, read-out: IC50 LNCAP",0.661 µg/mL
same,IC50,"HL60; HL-60, 48 h",0.758 µg/mL
same,IC50,A27805; 48 h,0.542 µg/mL
same,IC50,"LS174T; 48 h, read-out: IC50 LS174T",0.712 µg/mL
same,IC50,A431 [1]; [10],0.433 µg/mL
same,IC50,"DU145; DU-145, 48 h",0.388 µg/mL
same,IC50,MCF7; [12],3.25 µg/mL
same,IC50,"LX1; LX-1, 48 h",0.0672 µg/mL
same,IC50,[5],> 70.9 µM
same,IC50,"PC3; PC-3, 48 h",1.66 µg/mL
same,IC50,MIP,0.731 µg/mL
same,IC50,A2780DDP; 48 h,0.513 µg/mL
same,IC50,[2],> 100 µM
same,IC50,"A549; A549, 48 h",2.92 µg/mL
same,IC50,"CACO2; Caco-2, 48 h",0.341 µg/mL
same,IC50,"SW948; SW948, 48 h",3.3 µg/mL
same,IC50,CCL228; 48 h,0.707 µg/mL
same,IC50,NEC; 48 h,0.952 µg/mL
"COc1cc2[nH]cc(C#N)c(=O)c2cc1OC [Example 33, 1,4-Dihydro-6,7-dimethoxy-4-oxo-3-quinolinecarbonitrile]",IC50,"A431 [4]; A-431, [3H]-thymidine incorporation, A431, read-out: IC50 A431",18 µM
